Measurements from patent publication US20250000864A1, “GONADOTROPIN-RELEASING HORMONE ANTAGONIST, AND PREPARATION METHOD THEREFOR AND USE THEREOF” (SHANDONG LUYE PHARMACEUTICAL CO., LTD., priority 2021, published 2025).
Like-named read-outs stand apart in the source and are kept apart here.

Columns and labels:
[1] = molecular target: human hERG potassium channel (Homo sapiens (Human), UniProt Q12809); test: hERG test (QPatch automated patch clamp, CHO cells); format: cell-based; settings: for Inhibitory activity on the human hERG potassium channel compared with Relugolix: in words, vs Relugolix
human hERG potassium channel, sequence (Q12809 whole entry): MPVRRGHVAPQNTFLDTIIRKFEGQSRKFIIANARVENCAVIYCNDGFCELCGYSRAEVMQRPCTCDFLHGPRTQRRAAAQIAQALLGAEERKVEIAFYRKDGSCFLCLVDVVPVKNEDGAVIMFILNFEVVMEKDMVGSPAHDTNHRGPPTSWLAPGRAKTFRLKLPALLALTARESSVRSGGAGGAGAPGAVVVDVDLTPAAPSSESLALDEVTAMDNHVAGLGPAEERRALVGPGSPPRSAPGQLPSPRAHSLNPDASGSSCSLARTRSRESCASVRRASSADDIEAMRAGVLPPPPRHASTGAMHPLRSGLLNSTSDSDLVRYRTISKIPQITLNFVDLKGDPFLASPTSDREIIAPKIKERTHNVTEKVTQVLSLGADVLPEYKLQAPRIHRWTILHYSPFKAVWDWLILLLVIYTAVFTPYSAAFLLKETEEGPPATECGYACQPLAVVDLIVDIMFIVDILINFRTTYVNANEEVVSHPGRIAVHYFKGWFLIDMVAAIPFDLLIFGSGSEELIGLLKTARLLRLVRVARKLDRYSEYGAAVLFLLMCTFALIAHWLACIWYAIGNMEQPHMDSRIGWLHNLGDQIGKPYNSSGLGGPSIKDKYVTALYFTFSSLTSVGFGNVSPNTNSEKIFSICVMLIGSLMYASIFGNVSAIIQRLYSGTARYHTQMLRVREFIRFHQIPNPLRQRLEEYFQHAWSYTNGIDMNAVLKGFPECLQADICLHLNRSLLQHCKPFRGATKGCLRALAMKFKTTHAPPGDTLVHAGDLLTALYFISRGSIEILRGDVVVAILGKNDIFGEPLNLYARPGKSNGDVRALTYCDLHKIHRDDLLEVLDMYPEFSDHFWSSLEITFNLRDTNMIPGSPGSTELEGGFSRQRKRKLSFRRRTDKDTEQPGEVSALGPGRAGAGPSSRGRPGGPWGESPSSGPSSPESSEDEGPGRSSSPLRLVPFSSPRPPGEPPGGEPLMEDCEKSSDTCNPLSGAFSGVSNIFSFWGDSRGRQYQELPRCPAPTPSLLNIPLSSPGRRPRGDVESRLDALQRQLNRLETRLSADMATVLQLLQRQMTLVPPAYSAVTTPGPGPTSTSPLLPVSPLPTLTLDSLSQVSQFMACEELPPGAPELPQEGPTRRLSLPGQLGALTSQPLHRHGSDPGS
Method: Cell: CHO cells stably expressing a human hERG potassium channel (WuXi AppTec (Shanghai) Co., Ltd.) Reagent: physiological solution (pH=7.4): 140 mM NaCl, 4 mM KCl, 2 mM CaCl2), 1 mM MgCl2, 5 mM Glucose, 10 mM HEPES, Osmolarity: about 298 mOsm; external solution (pH=7.4): 80 mM NaCl, 4 mM KCl, 2 mM CaCl2), 1 mM MgCl2, 5 mM Glucose, 60 mM NMDG, 10 mM HEPES, Osmolarity: about 289 mOsm; internal solution (pH=7.4): 10 mM NaCl, 10 mM KCl, 110 mM KF, 10 mM HEPES, EGTA: […], Osmolarity: about 280 mOsm.
Equipment: QPatch high-throughput automated patch clamp system, Sophion.
Method: CHO cells stably expressing a human hERG potassium channel were digested with TrypLE and resuspended in a physiological solution for later use. The single-cell high-impedance sealing and whole-cell mode formation processes were automatically completed by Qpatch. The clamping voltage for the cells was −80 mV. Then a voltage of −50 mV was applied for 80 ms to subtract (current) leakage, and a voltage of +20 mV was applied for 4800 ms to open the hERG channel. The voltage was then reduced to −50 mV and maintained for 5000 ms. This process was used for data collection and analysis. Finally, the voltage was returned to the clamping voltage (−80 mV, 1000 ms). This process was repeated every 20,000 ms. 40 μL of solvent control (external solution+DMSO) was added first, and the test was performed for […] to collect baseline data. Then, 40 μL of each of the test compounds was added at various concentrations, and the test was performed for no less than […]. The compounds were each dissolved in DMSO, with test concentrations being 0.30 μM, 1.00 μM, 3.00 μM, 10.00 μM, and 30.00 μM. The IC50 data for the hERG test were obtained by analyzing using DataControl, Excel2013, and Prism.

[2] = Metabolic stability in rat liver microsomes; format: in vitro ADME, SD rat; settings: Rat liver microsomes
Method: (§1) Liver Microsome: Rat Liver Microsome and Human Liver Microsome Reagent: NADPH, Roche Diagnostics Gmbh; ACN, Merck Chemical; Tolbutamide, Sigma. Instrument: water purification equipment, Millipore; electronic balance, METTLER TOLEDO; high-speed benchtop centrifuge, Thermo; water bath thermostatic oscillator, Shanghai Yiheng Technical Co., Ltd.; vortex oscillator, Thermo; LC-MS/MS, AB SCIEX. Method: the metabolic stability of test substances was evaluated by using SD rat and human liver microsomes. The test substances were incubated with liver microsomes from different species by using NADPH under a water bath at 37° C. A cold acetonitrile solution containing a Tolbutamide internal standard substance was added at a specified time point to terminate the reaction. The samples were pre-treated and then subjected to semi-quantitative analysis by LC-MS/MS. The retention times of the analytes and Tolbutamide internal standard, the acquisition of chromatograms, and the integration of chromatograms were processed using software Analyst (A Sciex, Framingham, Massachusetts, USA). The in vitro elimination rate constant Ke of the samples was obtained by converting the ratio of the peak area of the samples to the peak area of the internal standard into the residual percentage, and the in vitro clearance rate and the half-life of the test samples were calculated.

[3] = Metabolic stability in human liver microsomes; format: in vitro ADME
Method: as §1

[4] = Caco-2 two-way permeability and efflux; format: in vitro ADME; settings: human; for efflux ratio at 120 min: Caco-2
Method: (§2) Instrument: water purification equipment, ELGA LabWate; biosafety cabinet, NUAIRE; thermostatic CO2 incubator, Thermo; microplate reader, PerkinElmer; LC-MS/MS, AB SCIEX.
(§3) Method: A Caco-2 monolayer cell model was used to determine the two-way permeability of the test substances and evaluate whether the test substances were transported by the efflux of a transporter. In the experiment, Caco-2 cells were seeded into a 96-well cell culture plate and cultured for 28 consecutive days for transport assay. The test substances were each administered on two sides. After being incubated for 120 min, the samples at the apical end A, at the basal end B, and with cell lysis were collected and quantitatively determined for the content of the test substances by using a liquid chromatography-tandem mass spectrometry (LC/MS/MS) method. The apparent permeability coefficient (Papp) in the direction from the apical end to the basal end (A-B) and in the direction from the basal end to the apical end (B-A) and the efflux ratio were calculated from the concentrations of the test substances.

Caco-2 cells = test: Caco-2 two-way permeability and efflux; format: in vitro ADME
Method: as §2, §3

[5] = Pharmacokinetics in SD rats (i.v. and i.g.); format: in vivo; settings: for bioavailability: i.g 12 mg/kg vs i.v 1 mg/kg, read-out: F (absolute bioavailability)
Method: (§4) Instrument: water purification equipment, Millipore; electronic balance, METTLER TOLEDO; high-speed benchtop centrifuge, Thermo; water bath thermostatic oscillator, Shanghai Yiheng Technical Co., Ltd.; vortex oscillator, Thermo; LC-MS/MS, AB SCIEX.
(§5) Method: all compounds were formulated in DMSO and 20% solutol. In the pharmacokinetic experiment, the administration dose for the intravenous group (i.v) was 1 mg/kg, and the administration dose for the intragastric group (i.g) was 12 mg/kg, each group containing 3 rats. Blood was collected from the orbit of the rats before (0 h) the administration and at set time points after administration. In the tissue distribution experiment, the rats were subjected to intragastric administration at a dose of 12 mg/kg. […] The […] in a heparinized EP tube and centrifuged at 13,500 rpm for 10 min to isolate the plasma. The pituitary was homogenized with water in a certain proportion. The plasma and pituitary homogenates were pre-treated and then analyzed by LC-MS/MS to determine the concentration of the test substances in the plasma and the pituitary. The plasma drug concentration data were processed in a non-compartmental model using WinNonlin™ Version 6.3 (Pharsight, Mountain View, CA) pharmacokinetic software.

[6] = Pituitary tissue distribution in SD rats after intragastric administration; format: in vivo; set-up: Plasma concentration / Pituitary concentration: unit not given here; settings: i.g 12 mg/kg; for Concentration in the pituitary relative to Relugolix: vs Relugolix; for Concentration in the pituitary relative to compound 2A: vs compound 2A
Method: as §4, §5

human GnRHR [7] = molecular target: T1, human GnRHR (Homo sapiens (Human), UniProt P30968); test: In vitro antagonistic activity screening (FLIPR calcium fluorescence, Leuprolide acetate stimulation); format: cell-based; settings: HEK293 cells stably expressing human GnRHR
T1 sequence (P30968 whole entry): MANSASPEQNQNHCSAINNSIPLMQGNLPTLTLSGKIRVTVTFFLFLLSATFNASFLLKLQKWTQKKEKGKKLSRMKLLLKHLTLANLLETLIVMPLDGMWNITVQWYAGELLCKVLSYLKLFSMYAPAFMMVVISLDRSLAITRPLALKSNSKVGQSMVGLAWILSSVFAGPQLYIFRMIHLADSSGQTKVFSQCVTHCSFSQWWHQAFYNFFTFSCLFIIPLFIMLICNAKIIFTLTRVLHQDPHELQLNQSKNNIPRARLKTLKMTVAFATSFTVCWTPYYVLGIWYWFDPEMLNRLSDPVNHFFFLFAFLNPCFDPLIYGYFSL
Method: Cell: HEK293 cells stably expressing human GnRHR (WuXi AppTec (Shanghai) Co., Ltd.) Equipment: 384-well plate, Greiner; Vi-cell XR Cell Viability Analyzer, Beckman Coulter; incubator, Thermo.
Method: HEK293 cells stably expressing human GnRHR were seeded into a 384-well plate at a density of 20,000/well. Fluo-4 Direct™ No-wash Loading Buffer (Invitrogen) was added to each well the next day, and then the plate was put back into an incubator, incubated at 37° C. for 50 min, and then incubated at room temperature for 10 min. Test compounds were formulated in DMSO. […] Fluorescence values were determined using a FLIPR Tetra high throughput real-time fluorescence detection and assay system. Then 10 μL of Leuprolide acetate was added, and fluorescence values were determined. IC50 and IC90 of the compounds were calculated using Prism.

human GnRHR [8] = molecular target: T1, human GnRHR; test: In vitro binding screening ([125I][D-Trp6]-LH-RH displacement, Chem-1 cell membranes)
Method: [D-Trp6]-LH-RH, PerkinElmer; [D-Trp6]-LH-RH, Abcam.
Equipment: MicroBeta2 LumiJET system, PerkinElmer.
Method: Chem-1 cell membranes stably expressing human GnRHR were resuspended in HEPES at pH 7.4. […] [D-Trp6]-LH-RH was used in the non-specific binding assay. Cell membranes were collected by filtration under vacuum and washed before liquid scintillation. The binding IC50 and IC90 of the compounds were calculated using Prism.

[9] = intragastric group, vs Relugolix
[10] = intragastric group, vs compound 2A
[11] = male, Sprague-Dawley (SD), rat, plasma, iv, i.v 1 mg/kg
[12] = male, Sprague-Dawley (SD), rat, plasma, po, i.g 12 mg/kg

Structure (SMILES): CCNC(=O)Nc1ccc(-c2sc3c(c2CN(C)C)c(=O)n(-c2ccc(OC)nn2)c(=O)n3Cc2c(F)cccc2F)cn1 [Compound 2]
- Inhibitory activity on the human hERG potassium channel compared with Relugolix [1]: equal to or less than that of Relugolix
- Residual content at 60 min ([2]; NADPH, 37° C.): 61.0%
- CLint scaled ([2]; SD): 28.4 mL/min/kg
- half-life ([2]; SD): 87.7 min
- microsomal CLint ([2]; SD, read-out: CLint(mic)): 15.8 µL/min/mg
- CLint scaled [3]: 4.86 mL/min/kg
- half-life [3]: 257 min
- Residual content at 60 min ([3]; NADPH, 37° C.): 83.8%
- microsomal CLint ([3]; read-out: CLint(mic)): 5.4 µL/min/mg
- efflux ratio at 120 min [4]: ~6
- Efflux ratio (Caco-2 cells; Caco-2): 294
- Mean Papp A to B (Caco-2 cells; Caco-2, 120 min incubation): 0.0142 10^−6 cm/s
- Mean Papp B to A (Caco-2 cells; Caco-2, 120 min incubation): 4.19 10^−6 cm/s
- AUClast relative to Relugolix [5, 9]: 2.45 fold
- Absolute bioavailability relative to Relugolix [5, 9]: 3.47 fold
- Cmax relative to Relugolix [5, 9]: 3.63 fold
- AUClast relative to compound 2A [5, 10]: 0.96 fold
- Absolute bioavailability relative to compound 2A [5, 10]: 3.14 fold
- Cmax relative to compound 2A [5, 10]: 1.12 fold
- bioavailability ([5]; male, rat, plasma, oral): 19.9%
- Pituitary concentration ([6]; 1 h): 2250 ± 474
- Pituitary/plasma ([6]; 1 h): 56.9
- Plasma concentration ([6]; 1 h): 39.5 ± 14.0
- Concentration in the pituitary relative to Relugolix ([6]; 1 h): 2.38 fold
- Concentration in the pituitary relative to compound 2A ([6]; 1 h): 8.04 fold
- Pituitary concentration ([6]; 4 h): 1841 ± 636
- Pituitary/plasma ([6]; 4 h): 80.8
- Plasma concentration ([6]; 4 h): 22.8 ± 2.5
- Concentration in the pituitary relative to Relugolix ([6]; 4 h): 1.48 fold
- Concentration in the pituitary relative to compound 2A ([6]; 4 h): 6.60 fold
- Pituitary concentration ([6]; 12 h): 1254 ± 494
- Pituitary/plasma ([6]; 12 h): 129
- Plasma concentration ([6]; 12 h): 9.70 ± 3.10
- Concentration in the pituitary relative to Relugolix ([6]; 12 h): 2.46 fold
- Concentration in the pituitary relative to compound 2A ([6]; 12 h): 3.77 fold

Structure (SMILES): CCNC(=O)Nc1ccc(-c2sc3c(c2CN(C)C)c(=O)n(-c2ccc(OC)nn2)c(=O)n3Cc2c(F)cccc2F)cc1 [Compound 2A]
- IC50 (human GnRHR [7]; read-out: Functional IC50): 1.84 nM
- IC90 (human GnRHR [7]; read-out: Functional IC90): 8.19 nM
- IC90 (human GnRHR [8]): 13.2 nM
- IC50 (human GnRHR [8]; Chem-1 cell membranes, 0.05 nM [125I]-[D-Trp6]-LH-RH): 0.87 nM
- IC50 ([1]; CHO cells stably expressing human hERG potassium channel): 6.07 µM
- Inhibitory activity on the human hERG potassium channel compared with Relugolix [1]: equal to or less than that of Relugolix
- efflux ratio at 120 min ([4]; read-out: Efflux ratio): 1180
- Papp A→B at 120 min ([4]; Caco-2, 120 min incubation): 0.00816 ×10⁻⁶ cm/s
- Papp B→A at 120 min ([4]; Caco-2, 120 min incubation): 9.65 ×10⁻⁶ cm/s
- AUC(0-t) [5, 11]: 487 ± 150 ng·h/mL
- C0 [5, 11]: 521 ± 322 ng/mL
- MRT last [5, 11]: 4.14 ± 1.83 h
- half-life [5, 11]: 398 ± 186 min
- AUC(0-t) [5, 12]: 370 ± 109 ng·h/mL
- Cmax [5, 12]: 69.9 ± 15.1 ng/mL
- MRT last [5, 12]: 9.2 ± 2.3 h
- half-life [5, 12]: 1080 ± 954 min
- bioavailability ([5]; male, Sprague-Dawley (SD), rat, plasma, po): 6.33%
- Tmax ([5]; male, Sprague-Dawley (SD), rat, plasma, po, i.g 12 mg/kg, read-out: Tmax): 15 min
- Pituitary concentration ([6]; 1 h): 280 ± 80
- Plasma concentration ([6]; 1 h): 32.2 ± 18.0
- Pituitary concentration ([6]; 4 h): 279 ± 70
- Plasma concentration ([6]; 4 h): 13.3 ± 5.1
- Pituitary concentration ([6]; 12 h): 333 ± 90
- Plasma concentration ([6]; 12 h): 5.59 ± 1.55
- Kp at 1 h ([6]; male, Sprague-Dawley (SD), rat, pituitary/plasma, oral, 1 h): 8.7
- Kp at 4 h ([6]; male, Sprague-Dawley (SD), rat, pituitary/plasma, oral, 4 h): 21
- Kp at 12 h ([6]; male, Sprague-Dawley (SD), rat, pituitary/plasma, oral, 12 h): 59.6
